From patent publication US20180369203A1, “METHODS OF TREATING CANCER BY ADMINISTERING A MEK INHIBITOR IN COMBINATION WITH A PROTEASOME INHIBITOR” (The Jackson Laboratory, priority 2015, published 2018)

Experiments:
WM115 cells = assay: Lys48 ubiquitin immunostaining of aggregates in melanoma cells; type: cell-based, human; settings: 20 nM AZD6244, 100 nM Bortezomib, or both, 24 hr
Description: (§1) FIGS. 5A-Y show MEK and proteasome inhibition provoke protein aggregation and amyloidogenesis. (A-B) WM115 cells treated with 20 nM AZD6244, 100 nM Bortezomib, or both for 24 hr were stained with Lys48-specific ubiquitin antibodies. Arrowheads mark ubiquitin-positive aggregates. Scale bar: 10 μm. Amounts of aggregates per cell were quantitated using ImageJ (median, n≥100, ANOVA). (C-F) Following transfection with polyQ79 plasmids alone or with both polyQ79 and HSF1^S326D plasmids for one day, HEK293T cells were treated with inhibitors as described in (A-B). Cells were either analyzed for aggregate size or stained with 10 μM ThT. (G) Treated tumor cell lines were stained with 10 μM ThT. Geometric means were used to calculate fold changes in ThT fluorescence intensity and the log 2(FC) values were presented as a heat map. (H) HEK293T cells were transfected with LacZ or polyQ79 plasmid. Following treatments, AOs were quantitated by ELISA using A11 antibodies (mean±SD, n=3, ANOVA). (I) Intrinsic AOs were detected in human tumor cell lines (mean±SD, n=3, ANOVA). […] Amyloids were quantitated by ELISA (mean±SD, n=3, Student's t-test). […] AF formation was monitored by ThT binding (mean±SD, n=3, ANOVA). […] Amyloids were quantitated (mean±SD, n=3, Student's t-test). […] Viable cells were quantitated by CellTiter® blue (mean±SD, n=6, Student's t-test). […] Viable cells were quantitated (mean±SD, n=6, ANOVA). […]

polyQ79 = polyQ79 aggregate size in HEK293T cells (Coulter counter); type: cell-based; settings: 20 nM AZD6244, 100 nM Bortezomib, or both
Description: as §1

amyloid oligomers (AOs) = assay: Amyloid oligomer ELISA (A11) in murine cells (primary MEFs, NIH3T3); type: cell-based, mouse; settings: different concentrations of Bortezomib, 24 hrs
Description: as §1, with “(H) HEK293T cells were transfected with LacZ or polyQ79 plasmid.” left out
This figure is related to FIG. 5. […] (C) Quantitation of protein aggregate size. […]

CC(C)C[C@H](NC(=O)[C@H](Cc1ccccc1)NC(=O)c1cnccn1)B(O)O [Bortezomib, bortezomib]
ubiquitin-containing aggregates (punctate foci) (WM115 cells): bright fluorescent punctate foci emerged | polyQ79 aggregate size (polyQ79): enhanced | endogenous amyloid oligomers in NIH3T3 cells (amyloid oligomers (AOs)): capable of inducing amyloidogenesis
